Experimental data as given in article PMC12062022, “Chromene flavanones from Dalea boliviana as xanthine oxidase inhibitors: in vitro biological evaluation and molecular docking studies” (Frontiers in Pharmacology, 2025).

Molecular target: T1, xanthine oxidase (Bos taurus, UniProt P80457)
T1 construct: gene XDH
Test: spectrophotometric assay of uric acid formation at […] nm, bovine milk enzyme
Format: biochemical
Conditions: read-out: IC50 (nM) ± SEM

T1 sequence (P80457 2-1332): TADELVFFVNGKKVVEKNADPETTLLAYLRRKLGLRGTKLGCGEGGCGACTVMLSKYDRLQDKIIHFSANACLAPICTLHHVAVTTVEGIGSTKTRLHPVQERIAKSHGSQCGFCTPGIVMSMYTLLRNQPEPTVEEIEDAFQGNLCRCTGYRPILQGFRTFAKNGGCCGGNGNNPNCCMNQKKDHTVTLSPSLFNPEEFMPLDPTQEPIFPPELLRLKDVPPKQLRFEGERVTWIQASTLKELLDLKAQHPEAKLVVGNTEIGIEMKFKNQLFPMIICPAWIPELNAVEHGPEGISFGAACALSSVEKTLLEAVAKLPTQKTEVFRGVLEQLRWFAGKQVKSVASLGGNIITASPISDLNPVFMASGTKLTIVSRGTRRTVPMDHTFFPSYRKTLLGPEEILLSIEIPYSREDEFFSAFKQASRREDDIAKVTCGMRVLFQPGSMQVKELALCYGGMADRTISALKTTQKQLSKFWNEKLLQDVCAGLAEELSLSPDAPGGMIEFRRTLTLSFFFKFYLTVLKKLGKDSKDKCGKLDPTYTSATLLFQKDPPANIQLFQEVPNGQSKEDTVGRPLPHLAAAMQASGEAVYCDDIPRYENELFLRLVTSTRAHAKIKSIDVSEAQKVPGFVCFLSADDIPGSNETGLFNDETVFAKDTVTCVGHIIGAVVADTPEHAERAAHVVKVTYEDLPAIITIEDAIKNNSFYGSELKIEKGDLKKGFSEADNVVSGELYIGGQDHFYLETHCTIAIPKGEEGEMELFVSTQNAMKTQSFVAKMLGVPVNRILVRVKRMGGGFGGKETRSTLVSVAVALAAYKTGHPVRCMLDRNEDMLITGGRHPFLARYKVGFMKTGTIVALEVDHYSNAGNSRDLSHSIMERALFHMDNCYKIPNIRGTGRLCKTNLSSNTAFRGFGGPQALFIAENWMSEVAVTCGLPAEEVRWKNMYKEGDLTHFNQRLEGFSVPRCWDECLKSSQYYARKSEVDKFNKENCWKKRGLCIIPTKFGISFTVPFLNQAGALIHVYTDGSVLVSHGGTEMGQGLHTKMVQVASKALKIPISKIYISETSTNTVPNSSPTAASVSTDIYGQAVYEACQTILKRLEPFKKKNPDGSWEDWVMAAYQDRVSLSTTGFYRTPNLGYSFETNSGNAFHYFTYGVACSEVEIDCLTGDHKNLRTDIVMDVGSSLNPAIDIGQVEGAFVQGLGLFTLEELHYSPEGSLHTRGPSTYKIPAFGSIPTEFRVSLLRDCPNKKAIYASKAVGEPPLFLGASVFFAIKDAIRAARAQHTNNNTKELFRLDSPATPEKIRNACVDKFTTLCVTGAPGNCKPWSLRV

| Structure (SMILES) | IC50 [nM] |
| --- | --- |
| CC(C)=CCc1cccc(C2CC(=O)c3c(O)cc4c(c3O2)C=CC(C)(C)O4)c1O (stereo in doubt) [compound 2, (2S) 5,2′-dihydroxy-6″,6″-dimethylchromeno-(7,8:2″,3″)-3′-prenylflavanone] | 1.7 |
| CC1(C)C=Cc2c(cc(O)c3c2OC(c2ccccc2O)CC3=O)O1 (stereo in doubt) [compound 1, (2S) 5,2′-dihydroxy-6″,6″-dimethylchromeno-(7,8:2″,3″)-flavanone] | 0.5 |
